In PMC9767854, “Discovery and mechanism studies of a novel ATG4B inhibitor Ebselen by drug repurposing and its anti-colorectal cancer effects in mice” (Cell & Bioscience, 2022):

Assays:
SW620 = test: Autophagy flux by LC3B-II western blot in SW620; assay type: cell-based; conditions: Ebselen 10 μM with CQ 40 μM
Procedure: Fig. 5 Ebselen suppresses autophagy flux via inhibition of ATG4B. A, B HeLa cells were treated with Torin 1 (2 μM) or CQ (40 μM) and detected by western blot. C, D SW620 cells were transduced with sgCon and sgATG4B lentiviruses, respectively. Then cells were treated with CQ (40 μM) and detected by western blot. E, F HCT116 were treated with Ebselen (5 and 10 μM) or CQ (40 μM) and subjected to western blot. G, H SW620 were treated with Ebselen (10 μM) or CQ (40 μM) and western blotting was carried out to detect the protein levels. I, J Immunofluorescence analysis of endogenous LC3B in HCT116 treated with Ebselen (10 μM) or CQ (40 μM). Dots numbers for LC3B were derived from counting at least 20 cells and 5 fields from three independent replicated experiments. Bar = 10 μm. K HCT116 cells were treated with 2 μM Torin 1 in the presence or absence of 10 μM Ebselen for 12 h, then the level ratio of long-lived proteins was measured by flow cytometry
Immunoblotting assay was performed reportedly previously. Commonly, cells were lysed in ice-cold RIPA lysis buffer (Beyotime, P0013B) supplemented with Pierce™ protease inhibitor tablet (ThermoFisher Scientific, A32965). […]

[1] = system: ATG4 (mainly ATG4B) in tumors; test: ATG4 activity in xenografted tumors by FRET assay; assay type: in vivo, BALB/c-nu/nu mice; conditions: SW620 xenografts, 5, 10, 20 mg/kg
Procedure: FRET-based assay for ATG4B or ATG4A activity was operated as previously described [5, 17]. Briefly, Recombinant protein ATG4B (0.75 μg/ml) or ATG4A (5 μg/ml) was incubated with compounds in reaction buffer (150 mM NaCl, 20 mM Tris–HCl, pH 8.0, 0.1% CHAPS, 1 mM EDTA) at 37 °C. After 30 min, substrate FRET-GATE-16 (50 μg/ml) was added to a final volume of 50 μl. The reaction was recorded via relative fluorescence intensity ratio of 527 nm/477 nm (RFU). The final inhibition rate of the compound for ATG4 was calculated as: (RFUcompound-RFUNC)/(RFUCON-RFUNC) × 100%; respectively, NC as negative control without inhibitor, CON as control without enzymes. For ATG4 activity determination in cells and tissues, cells or separated tumor samples were homogenized in a native lysis buffer (150 mM NaCl, 20 mM Tris–HCl, pH 7.6, 1% TritonX-100, 1 mM EDTA) without protease inhibitors. Then 5 μg total proteins from each sample was added into FRET assay system after clean supernatant proteins were separated. The reaction was recorded via relative fluorescence intensity ratio of 527 nm/477 nm. Finally, the inhibition rates of ATG4B were calculated with the vehicle or CM group as the negative control (ATG4 activity defined as 100%).

O=c1c2ccccc2[se]n1-c1ccccc1 [Ebselen]
autophagic flux (LC3B-II) (SW620): inhibition of autophagic flux | activity of ATG4 in tumors [1]: significantly inhibited in a dose-dependent manner
